From the supplement of paper PMC11208160

Test: recombinant UMI read abundance after kanamycin selection (control-corrected) (log10(CPM+1)); higher = more efficient recombination; extreme values may be limits of the assay; sequences stand for … in AGTGCAGAGAAAATCGGCCAGTTTTCTCTGCCTGCAGTCCGCATGCCGTGGGACCCCTTGGGTTCTAACCTGTTGCCTAGATTTATGCAGCGGACTGCCTTTCTCCCAAAGTGATAAACCGG…AGGTTGGTTTCACT; site = the 11-nt donor
Procedure, shortened: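 In a pooled Escherichia coli screen for the IS621 bridge recombinase, donor and donor-binding-loop pairs were each placed with a 12-nt UMI on a plasmid bearing a promoterless kanamycin gene. This library was co-electroporated with a target plasmid encoding a fixed target and T7-inducible recombinase, and cells were plated either on IPTG (0.07 mM) plus kanamycin or without selection, in two replicates each. Recombinant UMIs were PCR-amplified across the donor–target junction and sequenced, and counts were converted to CPM, averaged over replicates, scaled by control-derived factors and reported as log10(CPM+1).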
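Also: IS621 bridge recombinase in Escherichia coli cells against a fixed T5 target plasmid.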

Point of comparison: “TAAAGTGCATGGACCGGTTTTCCCGGTAATCCGTATTTGTA (site TAAAGTTCTTA)”, “recombinant UMI read abundance (log10)” value 0. Against it:
- TAAACTCCATGGACCGGTTTTCCCGGTAATCCGTATTTGTA (site TAAACTCCTTA) — higher, 1.32
- TAAACTCCATGGACCGGTTTTCCCGGTAATCCGTATTTGTA (site TAAAGTCCTTA) — higher, 0.221
- TAAACTCCATGGACCGGTTTTCCCGGTAATCCGTATTTGTA (site TAAATTCCTTA) — the same, 0
- TAAAGTCCATGGACCGGTTTTCCCGGTAATCCGTATTTGTA (site AAAAGTCCTTA) — higher, 2.17
- TAAAGTCCATGGACCGGTTTTCCCGGTAATCCGTATTTGTA (site CAAAGTCCTTA) — higher, 0.47
- TAAAGTCCATGGACCGGTTTTCCCGGTAATCCGTATTTGTA (site GAAAGTCCTTA) — within 0.2 log units, 0.00467
- TAAAGTCCATGGACCGGTTTTCCCGGTAATCCGTATTTGTA (site TAAAATCCTTA) — the same, 0
- TAAAGTCCATGGACCGGTTTTCCCGGTAATCCGTATTTGTA (site TAAACTCCTTA) — higher, 0.531
- TAAAGTCCATGGACCGGTTTTCCCGGTAATCCGTATTTGTA (site TAAAGACCTTA) — within 0.2 log units, 0.00959
- TAAAGTCCATGGACCGGTTTTCCCGGTAATCCGTATTTGTA (site TAAAGCCCTTA) — higher, 0.452
- TAAAGTCCATGGACCGGTTTTCCCGGTAATCCGTATTTGTA (site TAAAGGCCTTA) — within 0.2 log units, 0.00572
- TAAAGTCCATGGACCGGTTTTCCCGGTAATCCGTATTTGTA (site TAAAGTACTTA) — higher, 0.459
- TAAAGTCCATGGACCGGTTTTCCCGGTAATCCGTATTTGTA (site TAAAGTCCTAA) — within 0.2 log units, 0.0143
- TAAAGTCCATGGACCGGTTTTCCCGGTAATCCGTATTTGTA (site TAAAGTCCTCA) — within 0.2 log units, 0.00255
- TAAAGTCCATGGACCGGTTTTCCCGGTAATCCGTATTTGTA (site TAAAGTCCTGA) — the same, 0
- TAAAGTCCATGGACCGGTTTTCCCGGTAATCCGTATTTGTA (site TAAAGTCCTTA) — higher, 0.722
- TAAAGTCCATGGACCGGTTTTCCCGGTAATCCGTATTTGTA (site TAAAGTCCTTC) — within 0.2 log units, 0.00609
- TAAAGTCCATGGACCGGTTTTCCCGGTAATCCGTATTTGTA (site TAAAGTCCTTG) — within 0.2 log units, 0.00546
- TAAAGTCCATGGACCGGTTTTCCCGGTAATCCGTATTTGTA (site TAAAGTCCTTT) — within 0.2 log units, 0.0573
- TAAAGTCCATGGACCGGTTTTCCCGGTAATCCGTATTTGTA (site TAAAGTGCTTA) — within 0.2 log units, 0.00484
- TAAAGTCCATGGACCGGTTTTCCCGGTAATCCGTATTTGTA (site TAAAGTTCTTA) — within 0.2 log units, 0.0051
- TAAAGTCCATGGACCGGTTTTCCCGGTAATCCGTATTTGTA (site TAAATTCCTTA) — higher, 0.812
- TAAAGTCCATGGACCGGTTTTCCCGGTAATCCGTATTTGTA (site TAACGTCCTTA) — higher, 0.243
- TAAAGTCCATGGACCGGTTTTCCCGGTAATCCGTATTTGTA (site TAAGGTCCTTA) — within 0.2 log units, 0.198
- TAAAGTCCATGGACCGGTTTTCCCGGTAATCCGTATTTGTA (site TAATGTCCTTA) — within 0.2 log units, 0.0108
- TAAAGTCCATGGACCGGTTTTCCCGGTAATCCGTATTTGTA (site TACAGTCCTTA) — the same, 0
- TAAAGTCCATGGACCGGTTTTCCCGGTAATCCGTATTTGTA (site TAGAGTCCTTA) — higher, 0.358
- TAAAGTCCATGGACCGGTTTTCCCGGTAATCCGTATTTGTA (site TATAGTCCTTA) — within 0.2 log units, 0.0492
- TAAAGTCCATGGACCGGTTTTCCCGGTAATCCGTATTTGTA (site TCAAGTCCTTA) — within 0.2 log units, 0.0268
- TAAAGTCCATGGACCGGTTTTCCCGGTAATCCGTATTTGTA (site TGAAGTCCTTA) — within 0.2 log units, 0.00382
- TAAAGTCCATGGACCGGTTTTCCCGGTAATCCGTATTTGTA (site TTAAGTCCTTA) — higher, 0.671
- TAAAGTGCATGGACCGGTTTTCCCGGTAATCCGTATTTGTA (site TAAAGTACTTA) — higher, 1.36
- TAAAGTGCATGGACCGGTTTTCCCGGTAATCCGTATTTGTA (site TAAAGTCCTTA) — higher, 0.72
- TAAAGTGCATGGACCGGTTTTCCCGGTAATCCGTATTTGTA (site TAAAGTGCTTA) — higher, 2.22
- TAAATGACATGGACCGGTTTTCCCGGTAATCCGTATTTGGA (site TAAATGACTTC) — higher, 1.23
- TAAATTCCATGGACCGGTTTTCCCGGTAATCCGTATTTGGG (site TAAATTCCTCC) — the same, 0
- TAAATTCCATGGACCGGTTTTCCCGGTAATCCGTATTTGTA (site TAAAATCCTTA) — within 0.2 log units, 0.00321
- TAAATTCCATGGACCGGTTTTCCCGGTAATCCGTATTTGTA (site TAAACTCCTTA) — within 0.2 log units, 0.00609
- TAAATTCCATGGACCGGTTTTCCCGGTAATCCGTATTTGTA (site TAAAGTCCTTA) — higher, 0.471
- TAAATTCCATGGACCGGTTTTCCCGGTAATCCGTATTTGTA (site TAAATTCCTTA) — higher, 0.558
- TAACAGGCATGGACCGGTTTTCCCGGTAATCCGTATTTGTT (site TAACAGGCTAA) — higher, 1.1
- TAACCACCATGGACCGGTTTTCCCGGTAATCCGTATTTGAT (site TAACCACCTAT) — within 0.2 log units, 0.0138
- TAACCCGCATGGACCGGTTTTCCCGGTAATCCGTATTTGTG (site TAACCCGCTCA) — within 0.2 log units, 0.00831
- TAACGTCCATGGACCGGTTTTCCCGGTAATCCGTATTTGTA (site TAAAGTCCTTA) — higher, 0.571
- TAACGTCCATGGACCGGTTTTCCCGGTAATCCGTATTTGTA (site TAACGTCCTTA) — higher, 0.935
- TAACGTCCATGGACCGGTTTTCCCGGTAATCCGTATTTGTA (site TAAGGTCCTTA) — within 0.2 log units, 0.0133
- TAACGTCCATGGACCGGTTTTCCCGGTAATCCGTATTTGTA (site TAATGTCCTTA) — within 0.2 log units, 0.00898
- TAAGACACATGGACCGGTTTTCCCGGTAATCCGTATTTGTT (site TAAGACACTAA) — higher, 1.94
- TAAGAGACATGGACCGGTTTTCCCGGTAATCCGTATTTGCG (site TAAGAGACTCG) — higher, 2.41
- TAAGAGACATGGACCGGTTTTCCCGGTAATCCGTATTTGCG (site TCAGAGACTCG) — higher, 0.896
- TAAGAGACATGGACCGGTTTTCCCGGTAATCCGTATTTGCG (site TGAGAGACTCG) — higher, 0.483
- TAAGAGACATGGACCGGTTTTCCCGGTAATCCGTATTTGCG (site TTAGAGACTCG) — higher, 1.14
- TAAGATACATGGACCGGTTTTCCCGGTAATCCGTATTTGCT (site TAAGATACTAG) — higher, 2.11
- TAAGATGCATGGACCGGTTTTCCCGGTAATCCGTATTTGGG (site ATCCTCTCTGG) — the same, 0
- TAAGGAGCATGGACCGGTTTTCCCGGTAATCCGTATTTGGG (site TAAAGAGCTCC) — higher, 0.628
- TAAGGAGCATGGACCGGTTTTCCCGGTAATCCGTATTTGGG (site TAACGAGCTCC) — the same, 0
- TAAGGAGCATGGACCGGTTTTCCCGGTAATCCGTATTTGGG (site TAAGGAGCTCC) — within 0.2 log units, 0.164
- TAAGGAGCATGGACCGGTTTTCCCGGTAATCCGTATTTGGG (site TAATGAGCTCC) — within 0.2 log units, 0.0199
- TAAGTCACATGGACCGGTTTTCCCGGTAATCCGTATTTGAC (site TAAGTCACTGT) — higher, 2.35
- TAAGTTTCATGGACCGGTTTTCCCGGTAATCCGTATTTGGA (site TAAGTTTCTTC) — higher, 2.13
- TAATAAGCATGGACCGGTTTTCCCGGTAATCCGTATTTGGG (site TAATAAGCTCC) — within 0.2 log units, 0.013
- TAATAAGCATGGACCGGTTTTCCCGGTAATCCGTATTTGGG (site TAATCAGCTCC) — within 0.2 log units, 0.012
- TAATAAGCATGGACCGGTTTTCCCGGTAATCCGTATTTGGG (site TAATGAGCTCC) — within 0.2 log units, 0.00879
- TAATAAGCATGGACCGGTTTTCCCGGTAATCCGTATTTGGG (site TAATTAGCTCC) — higher, 0.507
- TAATCAGCATGGACCGGTTTTCCCGGTAATCCGTATTTGTC (site TAATCAGCTGA) — higher, 1.93
- TAATGAGCATGGACCGGTTTTCCCGGTAATCCGTATTTGAG (site TAATGAGCTCA) — within 0.2 log units, 0.196
- TAATGAGCATGGACCGGTTTTCCCGGTAATCCGTATTTGAG (site TAATGAGCTCC) — within 0.2 log units, 0.104
- TAATGAGCATGGACCGGTTTTCCCGGTAATCCGTATTTGAG (site TAATGAGCTCG) — higher, 0.341
- TAATGAGCATGGACCGGTTTTCCCGGTAATCCGTATTTGAG (site TAATGAGCTCT) — higher, 1.33
- TAATGAGCATGGACCGGTTTTCCCGGTAATCCGTATTTGCG (site TAATGAGCTCA) — higher, 0.385
- TAATGAGCATGGACCGGTTTTCCCGGTAATCCGTATTTGCG (site TAATGAGCTCC) — within 0.2 log units, 0.00423
- TAATGAGCATGGACCGGTTTTCCCGGTAATCCGTATTTGCG (site TAATGAGCTCG) — higher, 1.58
- TAATGAGCATGGACCGGTTTTCCCGGTAATCCGTATTTGCG (site TAATGAGCTCT) — higher, 0.626
- TAATGAGCATGGACCGGTTTTCCCGGTAATCCGTATTTGGG (site AAATGAGCTCC) — within 0.2 log units, 0.117
